In article PMC3639963, “A New Class of Small Molecule Inhibitor of BMP Signaling” (PLoS ONE, 2013):

Experiments:
Assay in all cases: Nanosyn kinase profiling
Assay type in all cases: biochemical
ARG = target: T1, ARG (Homo sapiens, UniProt P42684); details: for inhibition at 0.1 µM / inhibition at 1 µM: read-out: Percentage inhibition; for inhibition at 1 µM: 1 µM inhibitor
T1 construct: purchased Nanosyn (enzymatic panel); SGC in-house recombinant human kinases (DSF panel); Invitrogen (ALK1-6)
Procedure, shortened: (§1)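 Percent inhibition of each kinase was measured with the inhibitor at 0.1 µM and at 1 µM, as part of a 200-kinase human selectivity panel.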

PIM3 = target: T2, PIM3 (Homo sapiens, UniProt Q86V86); details: read-out: Percentage inhibition; for inhibition at 0.1 µM: 0.1 µM inhibitor; for inhibition at 1 µM: 1 µM inhibitor
T2 construct: purchased Nanosyn (enzymatic panel); SGC in-house recombinant human kinases (DSF panel); Invitrogen (ALK1-6)
Procedure, shortened: as §1

RSK2 = target: T3, RSK2 (Homo sapiens, UniProt P51812); details: read-out: Percentage inhibition; for inhibition at 0.1 µM: 0.1 µM inhibitor; for inhibition at 1 µM: 1 µM inhibitor
T3 construct: purchased Nanosyn (enzymatic panel); SGC in-house recombinant human kinases (DSF panel); Invitrogen (ALK1-6)
Procedure, shortened: as §1

CAMK2α = target: T4, CAMK2α (Homo sapiens, UniProt Q9UQM7); details: read-out: Percentage inhibition; for inhibition at 0.1 µM: 0.1 µM inhibitor; for inhibition at 1 µM: 1 µM inhibitor
T4 construct: purchased Nanosyn (enzymatic panel); SGC in-house recombinant human kinases (DSF panel); Invitrogen (ALK1-6)
Procedure, shortened: as §1

HCK = target: T5, HCK (Homo sapiens, UniProt P08631); details: read-out: Percentage inhibition; for inhibition at 0.1 µM: 0.1 µM inhibitor; for inhibition at 1 µM: 1 µM inhibitor
T5 construct: purchased Nanosyn (enzymatic panel); SGC in-house recombinant human kinases (DSF panel); Invitrogen (ALK1-6)
Procedure, shortened: as §1

PRKG2 = target: T6, PRKG2 (Homo sapiens, UniProt Q13237); details: read-out: Percentage inhibition; for inhibition at 0.1 µM: 0.1 µM inhibitor; for inhibition at 1 µM: 1 µM inhibitor
T6 construct: purchased Nanosyn (enzymatic panel); SGC in-house recombinant human kinases (DSF panel); Invitrogen (ALK1-6)
T6 sequence (Q13237 1-762): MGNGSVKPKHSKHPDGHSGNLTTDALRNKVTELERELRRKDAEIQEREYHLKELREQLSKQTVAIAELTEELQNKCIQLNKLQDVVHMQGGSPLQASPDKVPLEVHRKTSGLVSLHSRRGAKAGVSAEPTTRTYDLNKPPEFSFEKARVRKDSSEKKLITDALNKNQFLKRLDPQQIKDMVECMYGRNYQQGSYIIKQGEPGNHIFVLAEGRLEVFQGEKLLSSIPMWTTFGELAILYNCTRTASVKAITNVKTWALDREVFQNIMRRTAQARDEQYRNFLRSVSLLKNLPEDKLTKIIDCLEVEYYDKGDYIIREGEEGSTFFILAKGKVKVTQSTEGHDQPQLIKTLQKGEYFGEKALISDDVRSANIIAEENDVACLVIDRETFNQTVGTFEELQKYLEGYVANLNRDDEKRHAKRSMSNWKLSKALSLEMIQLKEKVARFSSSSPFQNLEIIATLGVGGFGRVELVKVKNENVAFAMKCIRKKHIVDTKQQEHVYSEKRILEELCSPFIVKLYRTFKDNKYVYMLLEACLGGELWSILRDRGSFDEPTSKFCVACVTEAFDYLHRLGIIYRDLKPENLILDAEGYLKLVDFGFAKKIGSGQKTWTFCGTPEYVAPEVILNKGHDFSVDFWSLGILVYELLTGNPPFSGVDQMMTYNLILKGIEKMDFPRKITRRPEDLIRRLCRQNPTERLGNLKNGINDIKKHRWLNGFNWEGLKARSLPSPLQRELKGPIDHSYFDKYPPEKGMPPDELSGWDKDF
Procedure, shortened: as §1

TYRO3 = target: T7, TYRO3 (Homo sapiens, UniProt Q06418); details: read-out: Percentage inhibition; for inhibition at 0.1 µM: 0.1 µM inhibitor; for inhibition at 1 µM: 1 µM inhibitor
T7 construct: purchased Nanosyn (enzymatic panel); SGC in-house recombinant human kinases (DSF panel); Invitrogen (ALK1-6)
T7 sequence (Q06418 41-890): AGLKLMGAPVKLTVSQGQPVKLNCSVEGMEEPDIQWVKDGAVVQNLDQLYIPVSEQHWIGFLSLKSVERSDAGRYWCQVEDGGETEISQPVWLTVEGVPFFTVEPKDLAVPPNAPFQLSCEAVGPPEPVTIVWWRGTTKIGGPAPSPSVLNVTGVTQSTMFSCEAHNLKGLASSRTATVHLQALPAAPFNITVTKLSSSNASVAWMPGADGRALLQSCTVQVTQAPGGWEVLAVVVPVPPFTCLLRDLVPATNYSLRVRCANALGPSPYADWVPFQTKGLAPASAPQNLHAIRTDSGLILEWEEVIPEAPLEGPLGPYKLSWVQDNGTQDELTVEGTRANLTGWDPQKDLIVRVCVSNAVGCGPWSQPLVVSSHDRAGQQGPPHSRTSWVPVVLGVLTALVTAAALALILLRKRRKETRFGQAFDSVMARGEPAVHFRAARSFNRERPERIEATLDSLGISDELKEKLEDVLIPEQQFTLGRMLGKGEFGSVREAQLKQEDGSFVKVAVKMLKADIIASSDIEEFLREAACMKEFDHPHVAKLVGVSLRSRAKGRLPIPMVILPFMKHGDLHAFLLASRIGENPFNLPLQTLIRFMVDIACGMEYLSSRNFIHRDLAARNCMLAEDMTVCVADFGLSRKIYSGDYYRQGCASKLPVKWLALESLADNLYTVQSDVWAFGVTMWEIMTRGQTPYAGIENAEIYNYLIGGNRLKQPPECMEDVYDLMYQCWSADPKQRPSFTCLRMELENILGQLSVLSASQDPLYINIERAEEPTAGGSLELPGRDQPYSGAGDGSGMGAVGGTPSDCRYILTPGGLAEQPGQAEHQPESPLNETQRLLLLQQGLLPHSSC
Procedure, shortened: as §1

T3 sequence (P51812 whole entry): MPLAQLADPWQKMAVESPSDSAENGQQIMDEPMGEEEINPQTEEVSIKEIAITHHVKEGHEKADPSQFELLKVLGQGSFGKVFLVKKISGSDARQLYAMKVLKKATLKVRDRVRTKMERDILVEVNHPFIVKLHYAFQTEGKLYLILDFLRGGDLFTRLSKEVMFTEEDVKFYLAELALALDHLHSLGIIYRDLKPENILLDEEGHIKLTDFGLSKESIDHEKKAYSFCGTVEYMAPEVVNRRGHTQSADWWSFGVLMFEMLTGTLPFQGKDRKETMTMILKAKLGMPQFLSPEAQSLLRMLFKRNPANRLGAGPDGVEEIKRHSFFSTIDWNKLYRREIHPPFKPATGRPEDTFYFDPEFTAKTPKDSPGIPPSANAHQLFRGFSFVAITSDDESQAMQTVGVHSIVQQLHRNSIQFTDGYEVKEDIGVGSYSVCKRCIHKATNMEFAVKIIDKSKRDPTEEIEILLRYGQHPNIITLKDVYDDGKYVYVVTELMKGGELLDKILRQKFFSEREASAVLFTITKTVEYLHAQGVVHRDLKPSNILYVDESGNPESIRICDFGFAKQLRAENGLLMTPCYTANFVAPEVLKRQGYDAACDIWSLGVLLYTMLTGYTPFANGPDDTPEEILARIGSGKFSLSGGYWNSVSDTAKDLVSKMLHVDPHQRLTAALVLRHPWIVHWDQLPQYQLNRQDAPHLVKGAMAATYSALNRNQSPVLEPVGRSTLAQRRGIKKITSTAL
T4 sequence (Q9UQM7 whole entry): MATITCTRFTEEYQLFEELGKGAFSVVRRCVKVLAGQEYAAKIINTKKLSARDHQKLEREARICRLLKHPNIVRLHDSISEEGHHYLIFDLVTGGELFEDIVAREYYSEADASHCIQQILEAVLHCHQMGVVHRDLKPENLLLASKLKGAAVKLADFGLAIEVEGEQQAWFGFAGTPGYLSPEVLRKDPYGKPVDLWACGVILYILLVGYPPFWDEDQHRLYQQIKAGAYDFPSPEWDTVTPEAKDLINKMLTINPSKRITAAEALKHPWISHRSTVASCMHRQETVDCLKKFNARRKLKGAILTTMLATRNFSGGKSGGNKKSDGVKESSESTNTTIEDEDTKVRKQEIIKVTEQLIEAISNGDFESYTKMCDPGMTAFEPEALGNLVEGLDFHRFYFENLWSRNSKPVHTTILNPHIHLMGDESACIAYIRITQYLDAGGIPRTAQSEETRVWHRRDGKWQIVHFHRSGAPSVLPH
T5 sequence (P08631 whole entry): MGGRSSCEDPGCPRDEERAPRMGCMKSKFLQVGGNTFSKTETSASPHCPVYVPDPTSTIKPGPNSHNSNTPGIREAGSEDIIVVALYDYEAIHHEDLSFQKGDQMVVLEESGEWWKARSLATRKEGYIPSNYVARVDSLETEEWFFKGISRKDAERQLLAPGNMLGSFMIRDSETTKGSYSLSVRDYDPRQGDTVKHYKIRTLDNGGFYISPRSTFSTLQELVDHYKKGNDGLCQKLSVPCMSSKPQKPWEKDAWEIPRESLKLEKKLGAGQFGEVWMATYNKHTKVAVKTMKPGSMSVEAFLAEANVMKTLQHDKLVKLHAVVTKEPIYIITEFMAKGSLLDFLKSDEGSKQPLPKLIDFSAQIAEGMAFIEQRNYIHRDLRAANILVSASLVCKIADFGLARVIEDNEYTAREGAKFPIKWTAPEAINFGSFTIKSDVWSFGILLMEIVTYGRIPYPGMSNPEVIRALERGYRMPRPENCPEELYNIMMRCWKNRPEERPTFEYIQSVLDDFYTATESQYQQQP
T1 sequence (P42684 whole entry): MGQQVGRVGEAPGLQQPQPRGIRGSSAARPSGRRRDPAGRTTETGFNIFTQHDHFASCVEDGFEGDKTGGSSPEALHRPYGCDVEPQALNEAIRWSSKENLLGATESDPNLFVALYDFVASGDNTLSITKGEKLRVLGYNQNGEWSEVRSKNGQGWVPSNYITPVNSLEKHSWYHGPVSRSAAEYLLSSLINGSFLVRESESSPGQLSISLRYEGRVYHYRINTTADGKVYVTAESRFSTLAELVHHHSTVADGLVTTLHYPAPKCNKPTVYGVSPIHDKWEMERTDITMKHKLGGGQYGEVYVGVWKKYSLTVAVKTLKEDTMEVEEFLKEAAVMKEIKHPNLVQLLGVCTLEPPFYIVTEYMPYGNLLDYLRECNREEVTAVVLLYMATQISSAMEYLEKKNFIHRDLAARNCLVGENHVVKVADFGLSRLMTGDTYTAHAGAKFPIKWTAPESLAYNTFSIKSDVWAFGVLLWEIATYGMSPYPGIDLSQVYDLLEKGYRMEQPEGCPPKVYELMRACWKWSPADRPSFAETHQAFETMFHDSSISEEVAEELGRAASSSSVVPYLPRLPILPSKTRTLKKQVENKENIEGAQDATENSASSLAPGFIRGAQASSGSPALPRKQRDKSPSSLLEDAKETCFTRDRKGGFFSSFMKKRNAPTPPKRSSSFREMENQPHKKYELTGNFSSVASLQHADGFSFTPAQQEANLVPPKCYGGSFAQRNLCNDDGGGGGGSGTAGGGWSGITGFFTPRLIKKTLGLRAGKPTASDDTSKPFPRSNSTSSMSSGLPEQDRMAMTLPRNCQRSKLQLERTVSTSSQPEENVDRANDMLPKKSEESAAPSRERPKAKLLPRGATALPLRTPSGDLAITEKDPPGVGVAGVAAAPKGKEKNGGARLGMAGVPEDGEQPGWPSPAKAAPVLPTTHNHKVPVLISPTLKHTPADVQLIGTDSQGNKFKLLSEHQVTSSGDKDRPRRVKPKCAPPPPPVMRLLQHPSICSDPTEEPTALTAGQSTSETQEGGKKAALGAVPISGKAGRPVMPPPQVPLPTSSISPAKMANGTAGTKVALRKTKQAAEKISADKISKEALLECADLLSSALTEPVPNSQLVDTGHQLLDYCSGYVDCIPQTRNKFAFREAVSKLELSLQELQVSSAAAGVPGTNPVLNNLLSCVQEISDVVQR

Row | Compound | Percentage inhibition (ARG; 0.1 µM inhibitor, 0.1 µM) | inhibition at 0.1 µM (ARG; 0.1 µM inhibitor) | inhibition at 1 µM (ARG) | inhibition at 0.1 µM (PIM3) | inhibition at 1 µM (PIM3) | inhibition at 0.1 µM (RSK2) | inhibition at 1 µM (RSK2) | inhibition at 0.1 µM (CAMK2α) | inhibition at 1 µM (CAMK2α) | inhibition at 0.1 µM (HCK) | inhibition at 1 µM (HCK) | inhibition at 0.1 µM (PRKG2) | inhibition at 1 µM (PRKG2) | inhibition at 0.1 µM (TYRO3) | inhibition at 1 µM (TYRO3)
1 | COc1cc(-c2cc(-c3cccc(O)c3)cnc2N)cc(OC)c1OC [K02288, 3-[6-amino-5-(3,4,5-trimethoxy-phenyl)-pyridin-3-yl]-phenol] | > 50% | 66% | 85% | 2.3% | 5.9% | 0.8% | 2.2% | -2% | -2% | 8.9% | 51% | 1% | 5% | 1.8% | 19%
2 | c1ccc2c(-c3cnn4cc(-c5ccc(N6CCNCC6)cc5)cnc34)ccnc2c1 [LDN-193189] |  | 33% | 73% | 2% | -1% | 1.2% | 5.4% | 0% | -8% | 9.7% | 33% | 1.7% | 9.3% | 13% | 58%
